Test results: patent US20190175557A1, “COMPOUNDS USEFUL FOR DECREASING INTERFERON LEVEL” (priority 2016, published 2019)
Read-outs that look alike come from different tables or passages of the source.

Columns and labels:
HIV-stimulated pDC [1] = assay: Activation markers and cytokine mRNA in HIV-stimulated pDC (RT-qPCR, flow cytometry); type: cell-based, human
CXCR4 [2] = target: T1, CXCR4 (Homo sapiens, UniProt P61073); assay: CXCR4 internalization and co-localization in pDC (microscopy); type: cell-based; settings: confocal microscopy
T1 sequence (P61073 whole entry): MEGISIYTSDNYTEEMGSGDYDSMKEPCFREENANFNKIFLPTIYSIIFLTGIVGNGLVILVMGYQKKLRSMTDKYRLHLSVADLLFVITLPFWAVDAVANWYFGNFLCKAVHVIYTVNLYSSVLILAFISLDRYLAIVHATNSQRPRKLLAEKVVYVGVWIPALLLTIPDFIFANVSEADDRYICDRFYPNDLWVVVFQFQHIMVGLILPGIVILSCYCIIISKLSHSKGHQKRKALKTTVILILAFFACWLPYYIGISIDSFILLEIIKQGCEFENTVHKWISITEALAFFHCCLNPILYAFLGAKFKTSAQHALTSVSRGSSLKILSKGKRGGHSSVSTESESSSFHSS
Experimental: Cells were then incubated with anti-CXCR4 antibody (Biolegend, San Diego, Calif.) in saturation buffer PBS-BSA 0.5% for membrane staining or in permeabilizing buffer containing 1% saponin with monoclonal antibody anti-TRAIL (Biolegend, San Diego, Calif., USA). […] Nucleus was stained using DAPI (Molecular Probes, Paisley, UK). Slides were mounted with Fluoromount-G (eBioscience, CA, USA) and scanned with a Nikon Eclipse 90i Upright microscope (Nikon Instruments Europe, Badhoevedorp, The Netherlands) using a 100× Plan Apo VC piezo objective (NA 1.4) and Chroma bloc filters (ET-DAPI, ET-GFP) and were subsequently deconvoluted with a Meinel algorithm and 8 iterations and analyzed using Metamorph® (MDS Analytical Technologies, Winnersh, UK). TRAIL/DAPI/Overlay/Confocal plane: Representative 2D focal plan. Overlay with bright: Bright. […]
In other cases, cells were cultured overnight in media alone then were washed in ice-cold PBS-BSA 0.2% and stained with CXCR4 antibody (R&D Systems) for 1 hour at 4° C. […] Data are expressed as the mean percentage ±SEM mean channel fluorescence intensity (MFI) values for residual surface expression and intracellular staining. […]
7 pictures were taken from each slide for each Z section framing the nucleus. Quantification of the colocalization in the cytoplasm of purified pDC using Mander's Coefficient was obtained after analyze by JACoP pluging in ImageJ. […]

pDC = assay: Cytotoxicity of compounds on cultured pDC
HIV-stimulated pDC [3] = assay: TRAIL relocalization to the membrane of HIV-stimulated pDC (3D microscopy); type: cell-based, human
Experimental: Cells were then incubated with anti-CXCR4 antibody (Biolegend, San Diego, Calif.) in saturation buffer PBS-BSA 0.5% for membrane staining or in permeabilizing buffer containing 1% saponin with monoclonal antibody anti-TRAIL (Biolegend, San Diego, Calif., USA). […] Nucleus was stained using DAPI (Molecular Probes, Paisley, UK). Slides were mounted with Fluoromount-G (eBioscience, CA, USA) and scanned with a Nikon Eclipse 90i Upright microscope (Nikon Instruments Europe, Badhoevedorp, The Netherlands) using a 100× Plan Apo VC piezo objective (NA 1.4) and Chroma bloc filters (ET-DAPI, ET-GFP) and were subsequently deconvoluted with a Meinel algorithm and 8 iterations and analyzed using Metamorph® (MDS Analytical Technologies, Winnersh, UK). TRAIL/DAPI/Overlay/Confocal plane: Representative 2D focal plan. Overlay with bright: Bright. Reconvolution overlays: 2D projections of the maximum intensity pixels along the Z-axis.
7 pictures were taken from each slide for each Z section framing the nucleus. Quantification of the colocalization in the cytoplasm of purified pDC using Mander's Coefficient was obtained after analyze by JACoP pluging in ImageJ.

HIV-stimulated pDC [4] = assay: IFN-α / type I IFN production by HIV-stimulated purified pDC (ELISA); type: cell-based, human
H4R = H4R (Homo sapiens, UniProt Q9H3N8); type: cell-based; settings: H4R siRNA, human primary pDC
H4R, sequence (Q9H3N8 whole entry): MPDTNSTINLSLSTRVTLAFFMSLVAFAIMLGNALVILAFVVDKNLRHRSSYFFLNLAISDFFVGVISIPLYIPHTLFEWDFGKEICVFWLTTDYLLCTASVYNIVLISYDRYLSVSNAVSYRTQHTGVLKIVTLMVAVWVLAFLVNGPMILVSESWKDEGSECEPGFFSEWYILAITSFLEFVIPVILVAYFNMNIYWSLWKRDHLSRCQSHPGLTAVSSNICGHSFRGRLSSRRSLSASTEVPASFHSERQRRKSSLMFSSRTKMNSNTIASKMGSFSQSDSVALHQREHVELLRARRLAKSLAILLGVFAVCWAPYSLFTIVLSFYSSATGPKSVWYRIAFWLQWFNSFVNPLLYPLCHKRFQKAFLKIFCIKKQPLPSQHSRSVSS

flu-exposed human PBMC = type: cell-based
CXCR4 [5] = target: T1, CXCR4; settings: Jurkat cells, 1 mM, 4° C. for 30 min
[6] = test system: human Flu-activated primary PBMC; assay: cells; type: cell-based
CXCR4 [7] = target: T1, CXCR4
[8] = test system: 129S8 mice infected with Influenza A virus strain X31 (H3N2); settings: mouse, in vivo
[9] = Solubility of test compounds
[10] = test system: collagen-induced arthritis in DBA1/J mice; assay: Therapeutic collagen-induced arthritis model in DBA1/J mice; type: in vivo, mouse; settings: for inhibition of disease severity: Day 28-42, at termination (Day 42); for average AI (Arthritic Index): maximum AI=16
Experimental: 80 DBA1/J mice (male, 7-8 weeks) was received and placed in quarantine for 3 days with daily inspections. Ear tag mice for individual identification.
Individual mouse weights were recorded. Hind paw thickness were recorded by digital caliper. 80 mice subcutaneous were injected with collagen/CFA emulsion (0.05 ml/mouse; 100 μg/mouse collagens in CFA) using a 1 ml syringe fitted with a 25G needle. Mice returned to cages.
80 mice were boosted with collagen/ICFA emulsion. Then their individual weights were recorded.
Mice were scored for signs of arthritis:
7) Calculate Arthritic Index (AI) by addition of individual paw scores and record.
Mice with an AI score within a range of 2-6 were selected for assignment to groups for therapeutic dosing as in Table 4.
Begin intraperitoneal (IP) dosing once daily (QD) according to Table 4.
The compounds clobenpropit (CB) and IT1t were tested. CB and IT1t were stored at 4° C. […] These compounds were doses 7 days per week (Saturday and Sunday included) daily for 14 days.
Mice were weighed, scored for signs or arthritis, and hind paw thickness is measured by digital caliper three-times weekly (Monday, Wednesday and Friday). Any adverse reactions to treatment were recorded.
Termination: AI score were recorded for each limb. The paw thickness of the hind limbs is measured with digital caliper. Mice were anesthetized and exsanguinated into pre-chilled EDTA-tubes.
2) Plasma was assayed by ELISA for IL-1β, IL-6, TRAIL. Then, all limbs were collected.

[11] = test system: HIV or LPS stimulated monocytes; assay: IFN-γ mRNA in monocytes stimulated with HIV or LPS (RT-qPCR); type: cell-based; settings: RT-qPCR normalized to RPL13A
Experimental: Data shown are representative of two independent experiments.
Monocytes were pre-incubated with clobenpropit (CB), IT1t or chloroquine before being activated by HIV and LPS. IFN-γ levels were measured by RT-qPCR and normalized to RPL13A mRNA expression.

[12] = test system: pristane-induced SLE in Balb/c mice; assay: Pristane-induced systemic lupus erythematosus (SLE) model in Balb/c mice; type: in vivo, mouse; settings: 3, 10, 30 mg/kg IP QD
Experimental: Receive and quarantine (SOP 560) 70 female Balb/C (20-25 g) mice and house in filter-topped cages supplied with autoclaved bedding.
The animals are weighed, ear tagged for individual identification and randomly assigned to 8 treatment groups of 8 animals each and two groups of 3 animals (for pre-tolerance at 30 mg/kg of survival).
The test items compounds clobenpropit (CB) and IT1t are stored at 4° C.
Mouse weights are recorded twice a week, and daily observations for clinical signs.
Collected sera are stored at −80° C. for measurements of autoantibody on weeks 4, 8 and 10. (Predose will kept at −80° C. for potential use). Anti-dsDNA level is a standard screening readout for identifying efficacy of test compounds in a SLE model.
Measurements: weeks 4, 8, 10: (1) autoantibody (anti-dsDNA), collagen and cytokines TNFα, IL-6 and TRAIL by ELISA and (2) ANA antibody by IFA.

[13] = test system: NK cells activated by K562 cells; assay: IFN-γ, TNF-α and CD107a expression by NK cells activated by K562 cells (flow cytometry); type: cell-based; settings: treated 1 hour, then activated by K562 cells
[14] = 3 mg/kg IP once daily, at termination (Day 42)
[15] = 10 mg/kg IP once daily, at termination
[16] = 30 mg/kg IP once daily, at termination

## c1cc(CN2CCCNCCNCCCNCC2)ccc1CN1CCCNCCNCCCNCC1 [AMD3100]
HIV-stimulated pDC [1]
  type I IFN and TRAIL expression by HIV-activated pDC, compound alone: did not block
HIV-stimulated pDC [1]; pre-incubation 1 hour (20 μM) before histamine or CB
  effect on biological activities of histamine and CB on HIV activated-pDC: drastically abolished

## NCCc1cc(=O)oc2c3c4c(cc12)CCCN4CCC3 [FFN-511, FFN511]
CXCR4 [2]
  co-localization with CXCR4 in pDC: strong degree of co-localization
pDC; 50 μM
  cytotoxic effect on pDC: without any obvious cytotoxic effect
HIV-stimulated pDC [1]; HIV-1-stimulated pDC, RT-qPCR
  iNOS or IL-15 gene expression: neither CB nor FFN-511 affected
HIV-stimulated pDC [1]; RT-qPCR profiling, normalized to RPL13A
  transcription of virus-induced genes (TRAIL, IFNs, IL6, IL8, IL10, CXCL10, ISG56) induced in pDC by HIV-1: dramatically inhibited
HIV-stimulated pDC [3]
  TRAIL localization to the cell membrane in HIV-stimulated pDC: significantly inhibited
HIV-stimulated pDC [4]; 50 μM
  IFN type I production by HIV-stimulated pDC: strongly reduced

## NCCc1c[nH]cn1 [Histamine]
H4R
  effect of H4R knock down on inhibitory activity on IFN-α, IFN-β and TRAIL productions by HIV-stimulated pDC: did not block
pDC; 10 μM
  cytotoxicity on purified pDC: without obvious toxicity
flu-exposed human PBMC
  IFN-α/β and IFN-λ2/3 mRNA levels: significantly reduced
CXCR4 [5]
  binding of the CXCR4 antibody 12G5 on T cells: inhibited
Human primary PBMC
  Therapeutic index (Ratio TC50/EC50): <1500
Human primary PBMC; human
  TC50: <2000 µM
[6]
  EC50: 1.4 ± 1 µM
CXCR4 [7]; pDC stimulated by CXCR4-tropic HIV-1
  effect of CXCR4 gene silencing on the inhibitory effect on type I IFN and TRAIL: suppressed
[8]
  IFN-α, IFN-β and IFN-λ2/3 protein production in bronchioalveolar lavage (BAL) fluid: a trend towards IFN reduction that was not statistically significant
HIV-stimulated pDC [4]; purified pDC, 10 μM
  inhibitory effect on pDC activation / IFN-α production by HIV-1: active

## CC1(C)CN2C(CS/C(=N\C3CCCCC3)NC3CCCCC3)=CSC2=N1 [IT1t]
[9]; PBS, aqueous buffer
  solubility: > 50 mg/mL
[9]; water
  solubility: > 50 mg/mL
pDC
  toxicity at the efficient concentrations: not toxic
pDC; diluted in DMSO
  toxicity at higher concentrations: some toxicity
In vitro; human
  CC50: 238 ± 21 µM
[10]; 3 mg/kg IP once daily
  reduction in terminal plasma concentration of IL-1β: 49%
  reduction in terminal plasma concentration of TRAIL: 62%
  inhibition of disease severity: no amelioratory effect
[10]; [14]
  average AI (Arthritic Index): 13.1
[10]; 10 mg/kg IP once daily
  reduction in terminal plasma concentration of IL-1β: 53%
  reduction in terminal plasma concentration of IL-6: 30%
  reduction in terminal plasma concentration of TRAIL: 46%
[10]; [15]
  reduction in disease severity: 40%
  average AI (Arthritic Index): 7.9
[10]; 30 mg/kg IP once daily
  reduction in terminal plasma concentration of IL-1β: 69%
  reduction in terminal plasma concentration of IL-6: 66%
  reduction in terminal plasma concentration of TRAIL: 51%
[10]; [16]
  reduction in disease severity: 63%
  average AI (Arthritic Index): 4.9
[10]; 3, 10 and 30 mg/kg daily intraperitoneal injection
  disease progression over the dose range: dose-dependent inhibition
[11]
  IFN-γ expression by HIV or LPS stimulated monocytes: inhibit
Human primary PBMC
  Therapeutic index (Ratio TC50/EC50): 33.5
HIV-stimulated pDC [1]
  effect on cytokine production of activated pDC compared with CB: stronger effect
HIV-stimulated pDC [1]; 1 hour pre-culture, HIV X4
  IFN-α, IFN-β and TRAIL expression by HIV-stimulated pDC: inhibited
[6]; read-out: EC50
  EC50: 7.1 ± 1 µM
CXCR4 [7]; pDC stimulated with HIV X4 or HIV R5, active with control siRNA
  type I IFN reduction in CXCR4 siRNA-treated cells: lost its biological activity
[12]
  symptoms of pristane-Induced Systemic Lupus Erythematosus: reduce symptoms
[12]; compared to group 1 (vehicle)
  ds-DNA level: inhibition
[13]
  IFN-γ, TNF-α and CD107a expression by NK cells: decrease

## NCCc1c[nH]c2ccc(O)cc12 [Serotonin, serotonin]
In vitro
  CC50: 1500 ± 54 µM

## CCN(CC)CCCC(C)Nc1ccnc2cc(Cl)ccc12 (stereo not drawn) [chloroquine]
[11]
  IFN-γ expression by HIV or LPS stimulated monocytes: inhibit

## C[C@]12C=CC(=O)C=C1CC[C@@H]1[C@@H]2[C@@H](O)C[C@@]2(C)[C@H]1CC[C@]2(O)C(=O)CO [prednisolone]
[10]; 3 mg/kg IP once daily
  reduction in terminal plasma concentration of IL-1β: 62%
  reduction in terminal plasma concentration of IL-6: 79%
  reduction in terminal plasma concentration of TRAIL: 72%
  inhibition of disease severity: 82%
[10]; [14]
  average AI (Arthritic Index): 2.4

## NCCCNCCCCNCCCN [spermin, spermine]
[13]
  IFN-γ, TNF-α and CD107a expression by NK cells: decrease

## CXCL12: CXCR4 natural ligand
HIV-stimulated pDC [1]; 62.5 nM, pre-incubation 15 min, 30 min, 60 min
  IFN-α/β mRNA expressions by HIV stimulated pDC: did not reduce
HIV-stimulated pDC [1]; 10 μM
  type I IFN mRNA expression by HIV stimulated pDC: did not inhibit
